Test: xn = mol fraction of the nth substance listed

COC(=O)c1ccccc1 + O=C1CCCCC1
viscosity [mPa·s], 101 kPa
Details | x1 = 0.0859 | x1 = 0.1728 | x1 = 0.2643 | x1 = 0.3589 | x1 = 0.4562 | x1 = 0.5517 | x1 = 0.6575 | x1 = 0.7664 | x1 = 0.8794
303.15 K | 1.713 | 1.643 | 1.593 | 1.552 | 1.535 | 1.548 | 1.56 | 1.597 | 1.646
313.15 K | 1.422 | 1.367 | 1.332 | 1.299 | 1.282 | 1.292 | 1.307 | 1.337 | 1.375

O=C(OCc1ccccc1)c1ccccc1 + Cc1ccccc1
298.15 K, 101 kPa
Details | viscosity [mPa·s]
x1 = 0.2369 | 1.183
x1 = 0.4262 | 2.015
x1 = 0.6505 | 3.614
x1 = 0.789 | 5.08
x1 = 0.9002 | 6.66

C=CC(=O)OC(C)(C)C + C1CCOC1
viscosity [mPa·s], 101 kPa
Details | 293.15 K | 298.15 K | 303.15 K | 308.15 K | 313.15 K | 318.15 K
x2 = 0.0736 | 0.8645 | 0.7935 | 0.7273 | 0.6717 | 0.622 | 0.579
x2 = 0.1489 | 0.8229 | 0.757 | 0.6954 | 0.6433 | 0.5964 | 0.5554
x2 = 0.2121 | 0.7896 | 0.7278 | 0.6699 | 0.6206 | 0.5759 | 0.5365
x2 = 0.2773 | 0.7568 | 0.6992 | 0.6449 | 0.5984 | 0.5558 | 0.5179
x2 = 0.362 | 0.7164 | 0.664 | 0.6143 | 0.5711 | 0.5312 | 0.495
x2 = 0.4382 | 0.6823 | 0.6343 | 0.5886 | 0.5482 | 0.5105 | 0.4758
x2 = 0.5024 | 0.6551 | 0.6107 | 0.5681 | 0.53 | 0.494 | 0.4604
x2 = 0.5815 | 0.6237 | 0.5835 | 0.5446 | 0.5091 | 0.475 | 0.4427
x2 = 0.6532 | 0.597 | 0.5605 | 0.5247 | 0.4914 | 0.4589 | 0.4276
x2 = 0.7268 | 0.5716 | 0.5385 | 0.5058 | 0.4745 | 0.4435 | 0.4131
x2 = 0.7921 | 0.5505 | 0.5204 | 0.4902 | 0.4607 | 0.4308 | 0.4012
x2 = 0.8698 | 0.5273 | 0.5006 | 0.4732 | 0.4455 | 0.4168 | 0.3879
x2 = 0.9352 | 0.5094 | 0.4853 | 0.4601 | 0.4337 | 0.4059 | 0.3776

C[N+](C)(C)CCO.O=C([O-])c1ccccn1 + O
300 K, 100 kPa
Details | viscosity [mPa·s]
x2 = 0.5 | 232.8
x2 = 0.68 | 35.3
x2 = 0.81 | 16.4

CCOS(=O)(=O)[O-].CC[N+](CC)=C(N(C)C)N(C)C + CO
viscosity [mPa·s], 100 kPa
Details | x1 = 0.1 | x1 = 0.1991 | x1 = 0.298 | x1 = 0.3949 | x1 = 0.4982 | x1 = 0.5999 | x1 = 0.6953 | x1 = 0.7999 | x1 = 0.9002
293.15 K | 1.785 | 4.501 | 9.381 | 18.38 | 32.98 | 53.59 | 80.2 | 115.6 | 153.4
298.15 K | 1.634 | 4.072 | 8.2 | 15.58 | 27.24 | 42.8 | 62.36 | 87.46 | 112.3
303.15 K | 1.504 | 3.661 | 7.163 | 13.38 | 22.82 | 34.85 | 49.55 | 67.85 | 86.71
308.15 K | 1.389 | 3.307 | 6.417 | 11.63 | 19.37 | 28.79 | 40.16 | 53.89 | 67.59
313.15 K | 1.287 | 3 | 5.724 | 10.18 | 16.65 | 24.17 | 33.08 | 43.49 | 53.73
318.15 K | 1.195 | 2.734 | 4.994 | 8.991 | 14.45 | 20.55 | 27.69 | 35.64 | 43.24
323.15 K | 1.113 | 2.5 | 4.58 | 7.999 | 12.64 | 17.68 | 23.46 | 29.74 | 35.49

CCCCOCCO + c1ccccc1
viscosity [mPa·s], 101 kPa
Details | 298.15 K | 308.15 K
x1 = 0.0553 | 0.648 | 0.562
x1 = 0.1496 | 0.736 | 0.631
x1 = 0.2488 | 0.845 | 0.717
x1 = 0.3504 | 0.978 | 0.821
x1 = 0.4555 | 1.144 | 0.949
x1 = 0.4995 | 1.223 | 1.011
x1 = 0.5504 | 1.323 | 1.088
x1 = 0.6482 | 1.543 | 1.258
x1 = 0.7535 | 1.83 | 1.479
x1 = 0.8483 | 2.143 | 1.718
x1 = 0.9556 | 2.575 | 2.048

O=C(OCc1ccccc1)c1ccccc1 + CCOC(=O)c1ccccc1C(=O)OCC
313.15 K, 101.33 kPa
Details | viscosity [mPa·s]
x1 = 0.25 | 5.87
x1 = 0.5 | 5.54
x1 = 0.75 | 5.27

CCCCCCCCN(CCCCCCCC)CCCCCCCC + CCCCCCCCO
Details | viscosity [mPa·s]
298 K, 101.3 kPa, x1 = 0.00811 | 7.341

From the CheMixHub viscosity set
